# Test results from patent US20130309337A1, “PROCESS FOR THE PREPARATION OF PLANT EXTRACTS FOR TREATING SKIN DISORDERS AND ENHANCING HEALING OF WOUNDS” (DEVELOPMENT CENTER FOR BIOTECHNOLOGY, priority 2007, published 2013).
# System: STZ-induced diabetic rats
# Assay: Wound closure in STZ-induced diabetic rats (full-thickness dorsal excision wounds, topical application twice a day)
# Type: in vivo, rat
# Details: Example 6, Table 1
# Description: Rats with a body weight of over 300 g were administered with Streptozotocin (STZ, 65 mg/kg, i.p.) to induce high blood sugar.
# • i. The high-blood-sugar animals with a body weight of lower than 300 g were eliminated and the rest were randomized into 6 groups. • ii. The animals were anesthetized with pentobarbital and the hair on the surgical area (dorsal area) was removed. The surgical areas and instruments were then sterilized with 75% alcohol before operation. • iii. The skins on the dorsal medium areas (4, 6 and 8 cm from the midpoint of two scapula) were excised (full thickness) using a round cutting blade with a diameter of 1 cm. Measuring the Wounds, Applying Testing Materials, and Preventing the Wounds from Being Scratched • i. A standard ruler was placed beside the wounds and pictures were taken. • ii. A thin layer of the test materials formulated as ointments and 0.05 ml of CGS21680 solution were applied to each wound. • iii. The wounds were covered with gauze and hoods were worn on the rats' necks.
# Test materials were applied to the rats twice a day (morning and evening) and the wounds were measured at each time point.
# A standard ruler was placed beside the wounds when pictures were taken. The length of the wounds was standardized according to the scale of the standard ruler in the pictures before the wounds were analyzed with the image processing software Image-Pro (Media Cybernetics, Inc.) to avoid the errors caused by different picturing distances.
# The areas of the three wounds on the rats' backs were analyzed by Image-Pro. The wound areas of day zero were the original wound areas. The original wound areas minus the wound areas at different time points were divided by the original wound areas to get the wound closure percentages. The mean of the three wound closure percentages of each rat represents the wound closure of each rat. Four to seven rats per group were used for each test materials. The data was shown as mean±standard error (SEM). The p-values of the test results were calculated by t-test in statistics software sigma statis (Systat software Inc.). P<0.05 means there is a significant difference, and it is marked with * on the statistics charts or tables. P<0.01 means there is a very significant difference, and it is marked with ** on the statistics charts or tables. P<0.001 means there is an extremely significant difference, and it is marked with *** on the statistics charts or tables.
# The purpose of this example is to compare the efficacy of the composition of the present invention and that of the commercially available products on wound closures. The wound closure animal experiments were conducted according to Example 5. On day 0, 4, 6, 8, 10 and 12 after the treatments of placebo (Group 1), 1% S1 ointment (Group 2), CGS-21680 (Group 3), Regranex (Group 4), DCB-WH1-C (Group 5) and DCB-WH1-W (Group 6), the wound areas of all experimental groups were measured and the wound closure percentages and CT50 (time required for 50% wound closure) values were calculated.
# The purpose of this example is to compare the efficacy of DCB-WH1-W with that of its active ingredients in wound closures. The test materials are placebo (Group 1), 1% S1 ointment (Group 2), 0.25% PA-W4 ointment (Group 3), DCB-WH1-W (Group 4) and 1% PA-W4 ointment (Group 5). The wound closure animal experiments were conducted according to Example 5. On day 0, 4, 9, 11 and 13 after the treatment with the test materials, the wound areas of all experimental groups were measured and the wound closure percentages and CT50 were calculated.
structure (smiles),measurement,setting,value
"CCNC(=O)[C@H]1O[C@@H](n2cnc3c(N)nc(NCCc4ccc(CCC(=O)O)cc4)nc32)[C@H](O)[C@@H]1O [CGS-2168, CGS-21680]",CT50 (time required for 50% wound closure),,10.3 days
same,Wound closure percentage (%) Day 4,"day 4 after treatment, mean ± SEM, topical twice a day",−21.3 ± 4.8%
same,Wound closure percentage (%) Day 6,"day 6, mean ± SEM",−27.38 ± 3.2%
same,Wound closure percentage (%) Day 8,"day 8, mean ± SEM",−2.4 ± 4.1%
same,Wound closure percentage (%) Day 10,"day 10, mean ± SEM",46.7 ± 6.0%
same,Wound closure percentage (%) DAY 12,"day 12, mean ± SEM",71.7 ± 2.4%
